Laboratory results reported in patent US11414374B2, “Crystalline forms of vilanterol trifenatate and processes for their preparation” (Hovione Scientia Limited, priority 2017, dated 2022).

Tests used:
Format in all cases: physicochemical
[1] = Dynamic vapor sorption (DVS) analysis / hygroscopicity (EP 7.0 classification); details: for Hygroscopically (DVS): DVS hygroscopicity class; for XRPD after DVS: resulting form after DVS
Procedure: The hygroscopicity value is directly obtained from the sorption row at 80% RH, cycle 1.
Hygroscopicity of a sample of each of new form II and comparative form I was determined using the protocol provided below in conditions of 80% RH and 25° C.
The sample was subjected to DVS measuring using SMS-DVS intrinsic. The kinetic moisture sorption measurement was performed at 25° C. and in a RH % range described in the following: • From 40% RH to 90% RH • Form 90% RH to 0% RH • From 0% RH to 90% RH • From 90% RH to 0% RH
The sample was analyzed by XRPD after the analysis.
The hygroscopicity was calculated using the following equation: % Weight Change=[(W2−W1)/W1]*100 W1: weight of sample at the start of the experiment (25° C. and 40% RH) W2: weight of sample at 25° C. and 80% RH in the first absorption cycle

[2] = Storage stability of exposed powder at 25° C. and 60% RH for seven days, compared by XRPD; details: 25° C. 60% RH, 7 d, resulting form
Procedure: Approximately 30 mg of exposed powder of comparative form 1 and new forms II and III, respectively, were stored at 25′C and 60% RH for seven days. Each powder was then analyzed by XRPD and its diffraction pattern was compared with that of untreated sample.

[3] = DSC - differential scanning calorimetry; details: for DSC (onset) endo. degradation: endothermic event: degradation; for DSC (onset) endo. solvent loss + melting: endothermic event: solvent loss + melting (Form 6: + Form 2 melting; Form 14: + Form 3 melting); for DSC (onset) endo. solvent loss: endothermic event: solvent loss; for DSC (onset) endo. Form 1 melting: endothermic event: Form 1 melting
Procedure: The analysis was carried out using a DSC Q200 TA instruments equipped with a refrigerator cooling system (RCS40) and autosampler. The sample was weighed in an aluminum hermetic pan with pinhole. The analysis was performed heating the sample from 25° C. to 350° C. at 10° C./min.

[4] = TGA / TGA-EGA thermogravimetric analysis with evolved gas analysis; details: for EGA: evolved solvent identified; for TGA overall weight loss: overall loss of the named solvent(s)
Procedure: The analysis was carried out using the Mettler Toledo TGA/DSC1. The sample was weighed in an aluminum pan hermetically sealed with an aluminum pierced cover. The analysis was performed heating the sample from 25° C. to 320° C. at 10° C./min. TGA-FTIR coupled with Thermo Nicoled is 10 spectometer. The analysis was carried out using the mettler toledo TGA/DSC1. The sample was weighed in an aluminum pan hermetically sealed with an aluminum pierced cover. The analysis was performed heating the sample from 25° C. to 320° C. at 10° C./min. The evolved gas is compared with ft-ir spectra database for identification.

[5] = Stability test (exposed sample 16 h), form by XRPD; details: resulting form
[6] = Stability test (sealed vial 18 h), form by XRPD; details: resulting form
[7] = Stability test (60° C. 75% RH-3 d), form by XRPD; details: resulting form
XRPD after Grinding = details: resulting form after grinding

For `OCc1cc([C@@H](O)CNCCCCCCOCCOCc2c(Cl)cccc2Cl)ccc1O` [form IX, vilanterol trifenatate], the “Hygroscopically (DVS)” value ([1]; listed as Form 9) was “Slightly”, the “XRPD after DVS” value ([1]; listed as Form 9) was “Low crystallinity” and the “Stability test (25° C. 60% RH-7 d)” value ([2]; listed as Form 9) was “Form 9”. For the same compound, the “DSC (onset) endo. degradation” value ([3]; listed as Form 9) was “endo. 188 °C”, the “DSC (onset) endo. solvent loss + melting” value ([3]; listed as Form 9) was “endo. 100 °C solvent” and the “DSC (onset) endo. solvent loss” value ([3]; listed as Form 9) was “endo. 68 °C solvent loss”. The EGA ([4]; listed as Form 9) was “Nitromethane”, the “Stability test (exposed sample 16 h)” value ([5]; listed as Form 9) was “Form 9” and the “Stability test (sealed vial 18 h)” value ([6]; listed as Form 9) was “Form 9”. For the same compound, the “Stability test (60° C. 75% RH-3 d)” value ([7]; listed as Form 9) was “Partial conversion” and the “XRPD after Grinding” value (XRPD after Grinding; listed as Form 9) was “Amorphous”.

For `OCc1cc([C@@H](O)CNCCCCCCOCCOCc2c(Cl)cccc2Cl)ccc1O` [form VIII, vilanterol trifenatate], the “Hygroscopically (DVS)” value ([1]; listed as Form 8) was “Not hygroscopic”, the “XRPD after DVS” value ([1]; listed as Form 8) was “Form 8” and the “Stability test (25° C. 60% RH-7 d)” value ([2]; listed as Form 8) was “Strong crystallinity”. For the same compound, the “DSC (onset) endo. degradation” value ([3]; listed as Form 8) was “endo. 191 °C”, the “DSC (onset) endo. solvent loss + melting” value ([3]; listed as Form 8) was “endo. 136 °C solvent” and the “DSC (onset) endo. solvent loss” value ([3]; listed as Form 8) was “endo. 66 °C solvent loss”. For the same compound, the EGA ([4]; listed as Form 8) was “Anisole”, the “TGA overall weight loss” value ([4]; listed as Form 8) was “of approx.. 68% w/w” and the “Stability test (exposed sample 16 h)” value ([5]; listed as Form 8) was “Form 8”. For the same compound, the “Stability test (sealed vial 18 h)” value ([6]; listed as Form 8) was “Form 8”, the “Stability test (60° C. 75% RH-3 d)” value ([7]; listed as Form 8) was “Partial conversion” and the “XRPD after Grinding” value (XRPD after Grinding; listed as Form 8) was “Strong crystallinity”.

For `OCc1cc([C@@H](O)CNCCCCCCOCCOCc2c(Cl)cccc2Cl)ccc1O` [form X, vilanterol trifenatate], the “Hygroscopically (DVS)” value ([1]; listed as Form 10) was “Slightly”, the “XRPD after DVS” value ([1]; listed as Form 10) was “Form 1” and the “Stability test (25° C. 60% RH-7 d)” value ([2]; listed as Form 10) was “Form 1”. The “DSC (onset) endo. degradation” value ([3]; listed as Form 10) was “endo. 188 °C”, the “DSC (onset) endo. solvent loss + melting” value ([3]; listed as Form 10) was “endo. 69 °C solvent” and the EGA ([4]; listed as Form 10) was “Ethanol”. For the same compound, the “Stability test (exposed sample 16 h)” value ([5]; listed as Form 10) was “Form 10”, the “Stability test (sealed vial 18 h)” value ([6]; listed as Form 10) was “Form 10” and the “Stability test (60° C. 75% RH-3 d)” value ([7]; listed as Form 10) was “Form 1”. For the same compound, the “XRPD after Grinding” value (XRPD after Grinding; listed as Form 10) was “Amorphous”.

In the case of `OCc1cc([C@@H](O)CNCCCCCCOCCOCc2c(Cl)cccc2Cl)ccc1O` [form XI, vilanterol trifenatate], the “Hygroscopically (DVS)” value ([1]; listed as Form 11) is reported as “Slightly hygroscopic (Increase in mass is less than 2% and equal to or greater than 0.2%)”, the “XRPD after DVS” value ([1]; listed as Form 11) is reported as “Ascribable to Form 11” and the “Stability test (25° C. 60% RH-7 d)” value ([2]; listed as Form 11) is reported as “Form 1 (start”. The “DSC (onset) endo. Form 1 melting” value ([3]; listed as Form 11) was “endo. 135 °C Form 1”, the “DSC (onset) endo. degradation” value ([3]; listed as Form 11) was “endo. 188.6 °C” and the “DSC (onset) endo. solvent loss” value ([3]; listed as Form 11) was “endo. 50-100 °C solvent loss”. For the same compound, the EGA ([4]; listed as Form 11) was “Cyclohexane and 2-”, the “TGA overall weight loss” value ([4]; listed as Form 11) was “loss of 51% w/w” and the “Stability test (exposed sample 16 h)” value ([5]; listed as Form 11) was “Form 11”. For the same compound, the “Stability test (sealed vial 18 h)” value ([6]; listed as Form 11) was “Form 11”, the “Stability test (60° C. 75% RH-3 d)” value ([7]; listed as Form 11) was “Form 1 (almost” and the “XRPD after Grinding” value (XRPD after Grinding; listed as Form 11) was “Form 12”.

In the case of `OCc1cc([C@@H](O)CNCCCCCCOCCOCc2c(Cl)cccc2Cl)ccc1O` [form XII, vilanterol trifenatate], the “Hygroscopically (DVS)” value ([1]; listed as Form 12) is reported as “Slightly”, the “XRPD after DVS” value ([1]; listed as Form 12) is reported as “Form 1” and the “Stability test (25° C. 60% RH-7 d)” value ([2]; listed as Form 12) is reported as “Form 1 (almost”. For the same compound, the “DSC (onset) endo. Form 1 melting” value ([3]; listed as Form 12) was “endo. 134 °C Form 1”, the “DSC (onset) endo. degradation” value ([3]; listed as Form 12) was “endo. 189 °C” and the “DSC (onset) endo. solvent loss” value ([3]; listed as Form 12) was “endo. 21 °C solvent loss”. The EGA ([4]; listed as Form 12) was “Water and 1.2-”, the “TGA overall weight loss” value ([4]; listed as Form 12) was “One loss of 61.6% w/w” and the “Stability test (exposed sample 16 h)” value ([5]; listed as Form 12) was “Form 12”. For the same compound, the “Stability test (sealed vial 18 h)” value ([6]; listed as Form 12) was “Form 12”, the “Stability test (60° C. 75% RH-3 d)” value ([7]; listed as Form 12) was “Form 1 (almost” and the “XRPD after Grinding” value (XRPD after Grinding; listed as Form 12) was “Amorphous (few”.
